Measured values taken from paper PMC2737686 (Virology, 2009).
Peptide text beside a SMILES is read from it.

Assays:
ε RNA = experiment: Filter-binding assay of peptides, ε RNA; parameters: species or system Duck hepatitis B virus; conditions: peptide 10 pMol to 0.3 pMol on filter; 32P-labeled ε RNA
DHBV core gene RNA = experiment: Filter-binding assay of peptides, DHBV core gene RNA; parameters: species or system Duck hepatitis B virus; conditions: 32P-labeled DHBV core gene RNA
[1] = tested on: double-stranded DNA fragment; experiment: Filter-binding assay of peptides, double-stranded DNA; conditions: 32P-labeled double-stranded DNA fragment

SMILES: CC[C@H](C)[C@H](NC(=O)[C@H](CCCNC(=N)N)NC(=O)[C@H](CC(N)=O)NC(=O)[C@@H]1CCCN1C(=O)[C@H](Cc1c[nH]c2ccccc12)NC(=O)[C@@H](N)CO)C(=O)N[C@H](C(=O)NCC(=O)N[C@@H](CCCCN)C(=O)N[C@@H](CC(C)C)C(=O)N[C@@H](Cc1ccccc1)C(=O)N[C@@H](CC(C)C)C(=O)N[C@H](C(=O)N[C@@H](CC(=O)O)C(=O)N[C@@H](CCCCN)C(=O)N[C@@H](CC(N)=O)C(=O)N[C@@H](CO)C(=O)N[C@@H](CCCNC(=N)N)C(=O)N[C@@H](CC(N)=O)C(=O)N[C@H](C(=O)N[C@@H](CCC(=O)O)C(=O)N[C@@H](CCC(=O)O)C(=O)N[C@@H](C)C(=O)N[C@@H](CCCNC(=N)N)C(=O)N[C@@H](CC(C)C)C(=O)N[C@H](C(=O)N[C@H](C(=O)N[C@@H](CC(=O)O)C(=O)N[C@@H](Cc1ccccc1)C(=O)N[C@@H](CO)C(=O)N[C@@H](CCC(N)=O)C(=O)N[C@@H](Cc1ccccc1)C(=O)N[C@@H](CO)C(=O)N[C@@H](CCCCN)C(=O)NCC(=O)N[C@@H](CCCCN)C(=O)O)C(C)C)C(C)C)[C@@H](C)O)C(C)C)[C@@H](C)O [RT1C] (H-SWPNRITGKLFLVDKNSRNTEEARLVVDFSQFSKGK-OH; N-terminus and C-terminus assumed)
- RNA binding to ε, relative (peptide titration) (ε RNA): bound RNA less well than the T3B peptide
- Binding to irrelevant DHBV core gene RNA (DHBV core gene RNA): able to bind to an irrelevant RNA derived from the DHBV core gene
- Binding to double-stranded DNA [1]: able to bind to an irrelevant RNA derived from the DHBV core gene and to a double-stranded DNA fragment
